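Growth conditions: 96-well plates. Treatment: test compound, 48 hours, 5 concentrations. Analysis: linear interpolation between bracketing concentrations; unreached endpoints set to highest concentration. At the GI50, growth is halved.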 The source made the active and inactive calls. Cut-off read from the data, not from the text of the source: active = GI50 up to about 1.1 µM and inactive = higher. Peptide text beside a SMILES is read from it. * marks the point of attachment. Boc = CC(C)(C)OC(=O)*; OBn = c1ccc(CO*)cc1
Assays:
Assay in all cases: DTP human tumour cell line panel, 48 h
[1] = system: SN12C
[2] = system: SF-268
[3] = system: T47D
[4] = system: OVCAR-5
[5] = system: DU-145
[6] = system: K562
[7] = system: NCI-H460
[8] = system: U-251
[9] = system: Hs-578T
[10] = system: OVCAR-3
[11] = system: CAKI-1
[12] = system: CCRF-CEM
[13] = system: A549
[14] = system: TK-10
[15] = system: NCI-H226
[16] = system: IGROV-1
[17] = system: 786-0
[18] = system: RXF 393
[19] = system: BT-549

Row | SMILES | GI50 [1] | GI50 [2] | GI50 [3] | GI50 [4] | GI50 [5] | GI50 [6] | GI50 [7] | GI50 [8] | GI50 [9] | GI50 [10] | GI50 [11] | GI50 [12] | GI50 [13] | GI50 [14] | GI50 [15] | GI50 [16] | GI50 [17] | GI50 [18] | GI50 [19]
1 | COCCCNC(=O)C1=C(C)NC(C)=C(C(=O)NCCCOC)C1 | > 100 µM (inactive) | > 100 µM (inactive) | > 100 µM (inactive) | > 100 µM (inactive) | > 100 µM (inactive) | 46 µM (inactive) | > 100 µM (inactive) | > 100 µM (inactive) | 86.5 µM (inactive) | > 100 µM (inactive) | > 100 µM (inactive) | > 100 µM (inactive) | > 100 µM (inactive) | > 100 µM (inactive) | > 100 µM (inactive) | 11.3 µM (inactive) | > 100 µM (inactive) | > 100 µM (inactive) | –
2 | CC1(C)CC(C#Cc2ccccc2)CC(C)(C)N1O | 15.1 µM (inactive) | 20.7 µM (inactive) | 16 µM (inactive) | 22.1 µM (inactive) | 16.1 µM (inactive) | 22.8 µM (inactive) | 18.3 µM (inactive) | 23.9 µM (inactive) | 19 µM (inactive) | 15.9 µM (inactive) | 20.6 µM (inactive) | 39.8 µM (inactive) | 22.5 µM (inactive) | 20.4 µM (inactive) | 20.9 µM (inactive) | 29.9 µM (inactive) | 22.2 µM (inactive) | 19.5 µM (inactive) | –
3 | COc1cc(C=C2C(C)=NN(c3cccc(Cl)c3)C23C(Cl)C(=O)N3c2nc3ccccc3s2)ccc1O (stereo unspecified) | – | 3.09 µM (inactive) | 27 µM (inactive) | 20.7 µM (inactive) | 21.9 µM (inactive) | 3.61 µM (inactive) | 25.4 µM (inactive) | 15 µM (inactive) | 7.36 µM (inactive) | 26.4 µM (inactive) | 26.3 µM (inactive) | 2.07 µM (inactive) | – | 30.7 µM (inactive) | 22.4 µM (inactive) | 15.8 µM (inactive) | 19.8 µM (inactive) | 13.5 µM (inactive) | –
4 | Cc1c(/N=N/c2ccc(Cl)cc2)c(C)n(C2OC(CO)C(O)C(O)C2O)c(=S)c1C#N (stereo unspecified) | 15.5 µM (inactive) | 16 µM (inactive) | 32.7 µM (inactive) | 30.5 µM (inactive) | 20.5 µM (inactive) | 16.7 µM (inactive) | 25.8 µM (inactive) | 18.2 µM (inactive) | 10.7 µM (inactive) | 12.8 µM (inactive) | 64.1 µM (inactive) | 18.5 µM (inactive) | 22 µM (inactive) | 28.6 µM (inactive) | 25.3 µM (inactive) | 15.1 µM (inactive) | 18.5 µM (inactive) | 31.1 µM (inactive) | –
5 | [N-]=[N+]=C1N=CN=C1c1nc[nH]n1 | 20.9 µM (inactive) | – | 17.4 µM (inactive) | – | 48.5 µM (inactive) | 14.9 µM (inactive) | – | 27 µM (inactive) | – | 32.2 µM (inactive) | 6.31 µM (inactive) | 3.98 µM (inactive) | > 100 µM (inactive) | 51.2 µM (inactive) | > 100 µM (inactive) | 29 µM (inactive) | 21.9 µM (inactive) | 48.8 µM (inactive) | –
6 | Cc1ccc2c(c1)CC1(Cc3c(C)cccc3C1=O)C2=O (stereo unspecified) | > 100 µM (inactive) | > 100 µM (inactive) | > 100 µM (inactive) | > 100 µM (inactive) | > 100 µM (inactive) | > 100 µM (inactive) | > 100 µM (inactive) | 87.5 µM (inactive) | 22.6 µM (inactive) | > 100 µM (inactive) | – | > 100 µM (inactive) | > 100 µM (inactive) | > 100 µM (inactive) | > 100 µM (inactive) | > 100 µM (inactive) | > 100 µM (inactive) | > 100 µM (inactive) | –
7 | CC(C)C1CCC/C=C/C=C/C=C/C=C/C(OC2OC(C)C(O)C(N)C2O)CC2OC(O)(CC(O)CC(O)C(O)CCC(=O)O1)CC(O)C2C(=O)O (stereo unspecified) | > 52.5 µM (inactive) | > 52.5 µM (inactive) | – | – | – | > 52.5 µM (inactive) | – | > 52.5 µM (inactive) | – | > 52.5 µM (inactive) | > 52.5 µM (inactive) | > 52.5 µM (inactive) | > 52.5 µM (inactive) | – | – | > 52.5 µM (inactive) | > 52.5 µM (inactive) | – | –
8 | CCOC(=O)C1C2CCC1CC(=NNc1ccc([N+](=O)[O-])cc1[N+](=O)[O-])C2 (stereo unspecified) | > 50 µM (inactive) | > 50 µM (inactive) | – | > 50 µM (inactive) | > 50 µM (inactive) | 29.2 µM (inactive) | > 50 µM (inactive) | > 50 µM (inactive) | – | > 50 µM (inactive) | 14.8 µM (inactive) | > 50 µM (inactive) | 37.6 µM (inactive) | > 50 µM (inactive) | 37.4 µM (inactive) | > 50 µM (inactive) | > 50 µM (inactive) | > 50 µM (inactive) | > 50 µM (inactive)
9 | OC1CN=C2c3ccccc3C(O)(c3ccc(Cl)cc3)N2C1 (stereo unspecified) | 57.7 µM (inactive) | 32 µM (inactive) | > 100 µM (inactive) | 27 µM (inactive) | > 100 µM (inactive) | 35.6 µM (inactive) | 43.9 µM (inactive) | 66.7 µM (inactive) | 88.5 µM (inactive) | > 100 µM (inactive) | > 100 µM (inactive) | 36.7 µM (inactive) | > 100 µM (inactive) | 20.2 µM (inactive) | 83.4 µM (inactive) | 87.9 µM (inactive) | 55 µM (inactive) | 50 µM (inactive) | –
10 | Cc1nc2ccccc2c(-n2cccn2)c1CCn1cccn1 | > 100 µM (inactive) | > 100 µM (inactive) | > 100 µM (inactive) | > 100 µM (inactive) | > 100 µM (inactive) | 55 µM (inactive) | > 100 µM (inactive) | > 100 µM (inactive) | > 100 µM (inactive) | 40.4 µM (inactive) | > 100 µM (inactive) | 66.1 µM (inactive) | > 100 µM (inactive) | > 100 µM (inactive) | > 100 µM (inactive) | 85.9 µM (inactive) | > 100 µM (inactive) | > 100 µM (inactive) | –
11 | COc1cc(NCc2ccc3oc(=O)c(-c4ccccc4)nc3c2)cc(OC)c1OC | > 10 µM (inactive) | > 10 µM (inactive) | > 10 µM (inactive) | > 10 µM (inactive) | > 10 µM (inactive) | > 10 µM (inactive) | > 10 µM (inactive) | > 10 µM (inactive) | > 10 µM (inactive) | > 10 µM (inactive) | > 10 µM (inactive) | > 10 µM (inactive) | > 10 µM (inactive) | > 10 µM (inactive) | > 10 µM (inactive) | > 10 µM (inactive) | > 10 µM (inactive) | > 10 µM (inactive) | –
12 | Cc1ccc(/C=N/Nc2nc3ccccc3s2)s1 | 12.6 µM (inactive) | 49.8 µM (inactive) | 4.05 µM (inactive) | > 100 µM (inactive) | > 100 µM (inactive) | 31.5 µM (inactive) | – | 81.1 µM (inactive) | 66.1 µM (inactive) | 34.9 µM (inactive) | 79.3 µM (inactive) | > 100 µM (inactive) | > 100 µM (inactive) | 69.2 µM (inactive) | > 100 µM (inactive) | 18.8 µM (inactive) | 66.5 µM (inactive) | 82.6 µM (inactive) | –
13 | O=C(CN1CCN(c2ccccc2)CC1)c1ccc2[nH]c(=O)oc2c1 | > 100 µM (inactive) | > 100 µM (inactive) | – | > 100 µM (inactive) | > 100 µM (inactive) | > 100 µM (inactive) | > 100 µM (inactive) | 35.6 µM (inactive) | 70 µM (inactive) | > 100 µM (inactive) | > 100 µM (inactive) | > 100 µM (inactive) | – | > 100 µM (inactive) | > 100 µM (inactive) | > 100 µM (inactive) | > 100 µM (inactive) | > 100 µM (inactive) | > 100 µM (inactive)
14 | CC(NC(=O)C(NC(=O)OC(C)(C)C)C(C)C)C(=O)N1CCCC1C(=O)NCC(=O)NC(C(=O)NCC(=O)OCc1ccccc1)C(C)C (stereo unspecified) (Boc-VAPGVG-OBn; configuration not given here) | > 100 µM (inactive) | > 100 µM (inactive) | > 100 µM (inactive) | > 100 µM (inactive) | > 100 µM (inactive) | > 100 µM (inactive) | > 100 µM (inactive) | > 100 µM (inactive) | – | > 100 µM (inactive) | > 100 µM (inactive) | > 100 µM (inactive) | – | > 100 µM (inactive) | – | 62.1 µM (inactive) | > 100 µM (inactive) | – | –
15 | Clc1ccc(OCc2nnc3sc(SSc4nn5c(COc6ccc(Cl)cc6)nnc5s4)nn23)cc1 | > 100 µM (inactive) | > 100 µM (inactive) | 49.5 µM (inactive) | > 100 µM (inactive) | > 100 µM (inactive) | 74.3 µM (inactive) | > 100 µM (inactive) | > 100 µM (inactive) | > 100 µM (inactive) | – | – | – | > 100 µM (inactive) | – | > 100 µM (inactive) | > 100 µM (inactive) | > 100 µM (inactive) | – | –
16 | CCN(CC)CCCNc1[nH]c2ccccc2c2nc3ccc(OC)cc3c1-2 | 2.1 µM (inactive) | 1.77 µM (inactive) | 10 µM (inactive) | 1.28 µM (inactive) | 2.64 µM (inactive) | 1.27 µM (inactive) | 0.367 µM (active) | 1.77 µM (inactive) | 1.78 µM (inactive) | 3.31 µM (inactive) | 2.71 µM (inactive) | 0.61 µM (active) | 1.43 µM (inactive) | 2.31 µM (inactive) | 3.4 µM (inactive) | 1.71 µM (inactive) | 1.16 µM (inactive) | 1.59 µM (inactive) | –

Reference: ChEMBL document CHEMBL1201862, “PubChem BioAssay data set” (2004)
